In US12291503B2, “Crystalline form of compound, method for preparing the same, pharmaceutical composition and use” (Beijing Konruns Pharmaceutical Co., Ltd., priority 2019, dated 2025):
Where two headings read alike, the source gives them in different places. Each block holds one compound with its values, some of them ahead of it.

Legend:
MOLM-13 cells = assay: Human acute myeloid leukemia subcutaneous xenograft tumor model (MOLM-13); assay type: in vivo, mice
Text: Mice were inoculated subcutaneously with MOLM-13 cells and a human acute myeloid leukemia subcutaneous xenograft tumor model was established. After 14 days of intragastric administration of the crystalline form AB to animals, tumors were taken and tumor volume data were collected.

VEGF-R2 = VEGF-R2 (Homo sapiens, UniProt P35968); assay: IC50 against VEGF-R2; assay type: biochemical
Sequence of VEGF-R2 (P35968 20-1356): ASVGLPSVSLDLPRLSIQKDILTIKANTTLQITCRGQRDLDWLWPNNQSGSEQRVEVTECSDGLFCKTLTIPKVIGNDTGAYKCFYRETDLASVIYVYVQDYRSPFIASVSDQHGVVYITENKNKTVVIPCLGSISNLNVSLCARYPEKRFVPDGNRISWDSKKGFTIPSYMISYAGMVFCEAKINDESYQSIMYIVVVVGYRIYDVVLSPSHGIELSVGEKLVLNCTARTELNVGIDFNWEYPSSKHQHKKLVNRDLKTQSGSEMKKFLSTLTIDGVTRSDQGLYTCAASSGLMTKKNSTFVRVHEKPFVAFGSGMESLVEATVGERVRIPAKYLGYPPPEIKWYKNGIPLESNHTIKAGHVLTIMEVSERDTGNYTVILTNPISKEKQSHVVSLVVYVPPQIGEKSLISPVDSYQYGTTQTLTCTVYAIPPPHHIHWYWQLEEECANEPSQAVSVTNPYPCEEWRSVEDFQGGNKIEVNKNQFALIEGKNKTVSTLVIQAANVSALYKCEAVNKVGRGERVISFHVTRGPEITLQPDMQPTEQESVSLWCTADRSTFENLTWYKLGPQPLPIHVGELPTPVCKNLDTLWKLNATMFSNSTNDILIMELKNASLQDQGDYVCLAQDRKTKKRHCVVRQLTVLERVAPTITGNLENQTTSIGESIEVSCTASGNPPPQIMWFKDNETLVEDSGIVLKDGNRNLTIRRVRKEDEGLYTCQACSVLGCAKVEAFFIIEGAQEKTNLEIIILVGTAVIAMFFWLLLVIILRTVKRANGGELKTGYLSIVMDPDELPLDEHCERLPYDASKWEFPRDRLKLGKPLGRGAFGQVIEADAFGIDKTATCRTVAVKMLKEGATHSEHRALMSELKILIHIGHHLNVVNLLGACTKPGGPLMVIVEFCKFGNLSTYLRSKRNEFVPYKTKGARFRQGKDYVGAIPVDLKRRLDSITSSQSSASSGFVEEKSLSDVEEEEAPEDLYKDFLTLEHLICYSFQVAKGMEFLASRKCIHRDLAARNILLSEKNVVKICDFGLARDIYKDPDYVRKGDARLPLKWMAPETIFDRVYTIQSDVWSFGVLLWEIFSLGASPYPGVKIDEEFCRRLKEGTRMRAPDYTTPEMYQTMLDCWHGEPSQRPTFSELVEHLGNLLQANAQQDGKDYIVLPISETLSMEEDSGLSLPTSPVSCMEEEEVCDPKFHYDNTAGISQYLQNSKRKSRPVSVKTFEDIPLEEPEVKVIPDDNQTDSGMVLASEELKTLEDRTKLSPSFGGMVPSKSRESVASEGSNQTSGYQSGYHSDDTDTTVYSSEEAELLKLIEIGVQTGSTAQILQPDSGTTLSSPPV

NCI-H1703 cells = assay: Lung cancer subcutaneous xenotransplantation tumor model (NCI-H1703); assay type: in vivo, mice; conditions: for Tumor Inhibition Rate %: intragastric, 28 days, below line 'Micronization'
Text: NCIH-1703 cells were inoculated subcutaneously in mice to establish a lung cancer subcutaneous xenotransplantation tumor model. After 28 days of intragastric administration of the crystalline form AB to animals, tumors were taken and tumor volume data were collected.

[1] = Accelerated stability test of the crystalline form AB (40±2° C., RH 75%±5%, vials sealed and open); assay type: physicochemical; conditions: for Purity (HPLC method) Open / Purity (HPLC method) Sealed: 40±2° C., RH 75%±5%
Method: Accelerated stability test: the compound 1 was contained in vials, and these vials in sealed and open manners respectively were placed in closed containers (desiccators) with a relative humidity of 75%±5%; the desiccators were placed in an incubator at a temperature of 40±2° C. for 7 months; small samples were taken out at 0, 1, 2, 7 months respectively for detection.

AXL = biological target: T1, AXL (Homo sapiens, UniProt P30530); assay: IC50 against AXL; assay type: biochemical
T1 sequence (P30530 26-894): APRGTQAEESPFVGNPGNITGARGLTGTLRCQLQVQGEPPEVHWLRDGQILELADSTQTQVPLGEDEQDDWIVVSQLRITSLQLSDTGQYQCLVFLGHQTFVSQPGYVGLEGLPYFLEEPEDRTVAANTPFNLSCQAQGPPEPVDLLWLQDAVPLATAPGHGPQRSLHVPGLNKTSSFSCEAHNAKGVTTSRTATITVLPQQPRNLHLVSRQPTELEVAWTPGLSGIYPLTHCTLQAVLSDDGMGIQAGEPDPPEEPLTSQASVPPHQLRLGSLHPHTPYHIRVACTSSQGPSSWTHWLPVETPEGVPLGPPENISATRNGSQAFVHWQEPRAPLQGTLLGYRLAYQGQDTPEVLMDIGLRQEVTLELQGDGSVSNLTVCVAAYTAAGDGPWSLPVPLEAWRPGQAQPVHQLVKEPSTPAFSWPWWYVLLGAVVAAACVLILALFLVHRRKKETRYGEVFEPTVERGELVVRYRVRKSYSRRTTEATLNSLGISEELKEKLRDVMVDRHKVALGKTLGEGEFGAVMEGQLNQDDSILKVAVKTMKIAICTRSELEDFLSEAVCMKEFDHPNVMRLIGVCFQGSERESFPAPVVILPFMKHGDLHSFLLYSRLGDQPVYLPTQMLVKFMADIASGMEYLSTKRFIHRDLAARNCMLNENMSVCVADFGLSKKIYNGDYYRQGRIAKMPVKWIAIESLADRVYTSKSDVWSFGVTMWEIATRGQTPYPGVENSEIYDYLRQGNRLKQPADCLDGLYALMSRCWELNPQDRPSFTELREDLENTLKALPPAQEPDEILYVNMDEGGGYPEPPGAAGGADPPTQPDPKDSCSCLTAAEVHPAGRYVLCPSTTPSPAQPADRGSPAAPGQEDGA

[2] = Bioavailability analysis (pharmacokinetics) of crystalline forms in mice; assay type: in vivo; set-up: AUClast / AUCInf: concentration or dose not given beside the values; conditions: gavage, suspension in CMC-Na, mean
Method: Drug samples of different crystalline forms of the compound 1 were added to a solution of 1 CMC-Na respectively to prepare suspensions, which were administrated to mice by gavage. Drug samples of the different crystalline forms of the compound 1 were prepared into solutions in DMSO/PEG400/water and administered intravenously to mice. After drug administration, blood samples were collected from the dorsal vein of foot at different time points. After anticoagulation with heparin sodium, plasma was extracted by centrifugation. Plasma samples were analyzed by LC-MS/MS to obtain plasma drug concentrations. Pharmacokinetic parameters were calculated by WinNonlin (Phoenix™) The results of the bioavailability analysis for the crystalline form AB, the crystalline form M, and the crystalline form F are presented in Table 6.

[3] = Accelerated stability test of the crystalline form M and the crystalline form F (40±2° C., RH 75±5%, open petri dish); assay type: physicochemical; conditions: for Change in purity in 3 months' accelerated stability test: before and after grinding/pulverization
Method: Accelerated stability test: the crystalline form M of the compound 1 was contained in a petri dish, which was placed in an open manner in a closed container (desiccator) with a relative humidity of 75±5%; the desiccator was placed in an incubator at 40±2° C. for 3 months, and small samples were taken out at 0, 1, 2, 3 months respectively for detection.
Accelerated stability test: the crystalline form F of the compound 1 was contained in a petri dish, which was put in an open manner in a closed container (desiccator) with a relative humidity of 75±5%; the desiccator was placed in an incubator at 40±2° C. for 3 months; small samples were taken out at 0, 1, 2 and 3 months respectively for detection.

[4] = 1 month, open, 40±2° C., RH 75±5%
[5] = 2 months, open, 40±2° C., RH 75±5%
[6] = 3 months, open, 40±2° C., RH 75±5%

median effective dose EC50 (MOLM-13 cells; intragastric, 14 days): 1.5 mg/kg
IC50 (VEGF-R2): 0.38 nM
Purity (HPLC method) Open ([1]; 1 month): 99.36%
Purity (HPLC method) Sealed ([1]; 1 month): 99.32%
Purity (HPLC method) Open ([1]; 2 months): 99.35%
Purity (HPLC method) Sealed ([1]; 2 months): 99.34%
Purity (HPLC method) Open ([1]; 7 months): 99.36%
Purity (HPLC method) Sealed ([1]; 7 months): 99.32%
Stability (conclusion in words) ([1]; accelerated stability test, 7 months): good stability
Purity (HPLC method) ([1]; storage time 0 month): 99.35%
IC50 (AXL): 0.24 nM
AUCInf [2]: 2414 ng·h/mL
AUC_% Extrap [2]: 1.19%
AUClast [2]: 2399 ng·h/mL
AUClast/D [2]: 240 ng·h/mL per mg/kg
Cmax [2]: 930 ng/mL
MRT [2]: 1.91 h
T1/2 [2]: 0.86 h
Tmax ([2]; mouse, plasma, po, 10 mg/kg, read-out: Tmax): 1.33 h
Structure (SMILES): COc1cc2c(Oc3ccc(NC(=O)C4(C(=O)Nc5ccc(F)cc5)CC4)cc3F)ccnc2cc1OCCCCCC(=O)O [crystalline form AB, 6-[[4-[2-fluoro-4-[[1-[(4-fluorophenyl)aminoformyl]cyclopropanecarbonyl]amino]phenoxy]-6-methoxy-7-quinolyl]oxy] hexanoic acid]
Tumor Inhibition Rate % (MOLM-13 cells; 1.5 mg/kg, intragastric, 14 days): 51.5%
Tumor growth (MOLM-13 cells; 3 mg/kg): significantly inhibited tumor growth
Tumor Inhibition Rate % (MOLM-13 cells; 3 mg/kg, intragastric, 14 days): 81.9%
Tumor growth (MOLM-13 cells; 6 mg/kg or 6.25 mg/kg): inhibited tumor growth, and the tumor disappeared in some mice on day 14 after the administration
Tumor Inhibition Rate % (MOLM-13 cells; 6 mg/kg, intragastric, 14 days): 96.7%
Tumor Inhibition Rate % (MOLM-13 cells; 6.25 mg/kg, intragastric, 14 days): 95.6%
Tumor growth (NCI-H1703 cells; 6.25 mg/kg): significantly inhibit tumor growth
Tumor Inhibition Rate % (NCI-H1703 cells; 6.25 mg/kg): 87.0%
Tumor growth (NCI-H1703 cells; 12.5 mg/kg): significantly inhibit tumor growth and tumor regression was observed for some mice
Tumor growth (NCI-H1703 cells; 12.5 mg/kg, 25 mg/kg and 50 mg/kg): significantly inhibited tumor growth and the number of tumor regression cases presented a gradual increase
Tumor Inhibition Rate % (NCI-H1703 cells; 12.5 mg/kg): 94.7%
Tumor Inhibition Rate % (NCI-H1703 cells; 25 mg/kg): 98.5%
Tumor Inhibition Rate % (NCI-H1703 cells; 50 mg/kg): 99.2%

Purity (HPLC method) After grinding ([3]; 0 month): 99.13%
Purity (HPLC method) Before grinding ([3]; 0 month): 99.13%
Purity (HPLC method) After grinding [3, 4]: 99.32%
Purity (HPLC method) Before grinding [3, 4]: 99.33%
Purity (HPLC method) After grinding [3, 5]: 99.07%
Purity (HPLC method) Before grinding [3, 5]: 99.09%
Purity (HPLC method) After grinding [3, 6]: 99.06%
Purity (HPLC method) Before grinding [3, 6]: 99.07%
Change in purity in 3 months' accelerated stability test [3]: substantially no change in purity
AUCInf [2]: 675 ng·h/mL
AUC_% Extrap [2]: 22.7%
AUClast [2]: 505 ng·h/mL
AUClast/D [2]: 50.5 ng·h/mL per mg/kg
Cmax [2]: 201 ng/mL
MRT [2]: 3.05 h
T1/2 [2]: 1.7 h
Tmax [2]: 1.5 h
Structure (SMILES): COc1cc2c(Oc3ccc(NC(=O)C4(C(=O)Nc5ccc(F)cc5)CC4)cc3F)ccnc2cc1OCCCCCC(=O)O [crystalline form F, 6-[[4-[2-fluoro-4-[[1-[(4-fluorophenyl)aminoformyl]cyclopropanecarbonyl]amino]phenoxy]-6-methoxy-7-quinolyl]oxy] hexanoic acid]

Purity (HPLC method) After grinding ([3]; 0 month): 99.22%
Purity (HPLC method) Before grinding ([3]; 0 month): 99.21%
Purity (HPLC method) After grinding [3, 4]: 99.37%
Purity (HPLC method) Before grinding [3, 4]: 99.36%
Purity (HPLC method) After grinding [3, 5]: 99.17%
Purity (HPLC method) Before grinding [3, 5]: 99.16%
Purity (HPLC method) After grinding [3, 6]: 99.19%
Purity (HPLC method) Before grinding [3, 6]: 99.19%
Change in purity in 3 months' accelerated stability test [3]: substantially no change in purity
AUCInf [2]: 1110 ng·h/mL
AUC_% Extrap [2]: 39%
AUClast [2]: 581 ng·h/mL
AUClast/D [2]: 58.1 ng·h/mL per mg/kg
Cmax [2]: 200 ng/mL
MRT [2]: 5.65 h
T1/2 [2]: 3.61 h
Tmax [2]: 0.917 h
Structure (SMILES): COc1cc2c(Oc3ccc(NC(=O)C4(C(=O)Nc5ccc(F)cc5)CC4)cc3F)ccnc2cc1OCCCCCC(=O)O [crystalline form M, 6-[[4-[2-fluoro-4-[[1-[(4-fluorophenyl)aminoformyl]cyclopropanecarbonyl]amino]phenoxy]-6-methoxy-7-quinolyl]oxy] hexanoic acid]
